Test results taken from ChEMBL document CHEMBL1201862, “PubChem BioAssay data set” (2004).
The source made the active and inactive calls.

Tests used:
[1] = target: T1, Sentrin-specific protease 8 (Homo sapiens, UniProt Q96LD8); assay: inhibition of human SENP8 cleavage activity – biochemical, luminescence, SAR follow-up (AID 504501); format: functional
T1 sequence (Q96LD8 whole entry): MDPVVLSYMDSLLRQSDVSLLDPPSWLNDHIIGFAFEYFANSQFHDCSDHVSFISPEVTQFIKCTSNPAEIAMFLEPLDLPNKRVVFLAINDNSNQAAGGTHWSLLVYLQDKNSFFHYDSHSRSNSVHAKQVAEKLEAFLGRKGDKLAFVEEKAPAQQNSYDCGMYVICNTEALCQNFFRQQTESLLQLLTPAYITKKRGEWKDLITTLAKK

Caspase-3 [2] = target: T2, Caspase-3 (Homo sapiens, UniProt P42574); assay: inhibition of recombinant caspase-3 activity – biochemical, luminescence, set 2, selectivity assay for SENP protease inhibitor project, SAR follow-up (AID 588599); format: functional
T2 sequence (P42574 whole entry): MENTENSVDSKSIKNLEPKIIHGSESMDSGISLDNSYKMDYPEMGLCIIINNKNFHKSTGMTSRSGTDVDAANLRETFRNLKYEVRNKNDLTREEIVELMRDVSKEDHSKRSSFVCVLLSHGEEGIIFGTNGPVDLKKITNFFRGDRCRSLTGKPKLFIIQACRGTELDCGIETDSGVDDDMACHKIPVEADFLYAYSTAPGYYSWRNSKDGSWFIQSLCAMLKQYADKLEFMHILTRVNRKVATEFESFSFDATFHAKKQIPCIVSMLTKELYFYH

[3] = target: T1, Sentrin-specific protease 8; assay: inhibition of sentrin protease 8 – biochemical, luminescence, set 2, SAR follow-up (AID 588601); format: functional
Caspase-3 [4] = target: T2, Caspase-3; assay: SAR Analysis of small molecule inhibitors of Sentrin-specific proteases (SENPs) using a Caspase-3 Selectivity assay. [Related pubchem assays (depositor defined):AID2540, AID2599, AID434973, AID489001]; format: functional
[5] = target: T3, Sentrin-specific protease 7 (Homo sapiens, UniProt Q9BQF6); assay: inhibition of human SENP7 cleavage activity – biochemical, luminescence, set 2, SAR follow-up (AID 588600); format: functional
T3 sequence (Q9BQF6 whole entry): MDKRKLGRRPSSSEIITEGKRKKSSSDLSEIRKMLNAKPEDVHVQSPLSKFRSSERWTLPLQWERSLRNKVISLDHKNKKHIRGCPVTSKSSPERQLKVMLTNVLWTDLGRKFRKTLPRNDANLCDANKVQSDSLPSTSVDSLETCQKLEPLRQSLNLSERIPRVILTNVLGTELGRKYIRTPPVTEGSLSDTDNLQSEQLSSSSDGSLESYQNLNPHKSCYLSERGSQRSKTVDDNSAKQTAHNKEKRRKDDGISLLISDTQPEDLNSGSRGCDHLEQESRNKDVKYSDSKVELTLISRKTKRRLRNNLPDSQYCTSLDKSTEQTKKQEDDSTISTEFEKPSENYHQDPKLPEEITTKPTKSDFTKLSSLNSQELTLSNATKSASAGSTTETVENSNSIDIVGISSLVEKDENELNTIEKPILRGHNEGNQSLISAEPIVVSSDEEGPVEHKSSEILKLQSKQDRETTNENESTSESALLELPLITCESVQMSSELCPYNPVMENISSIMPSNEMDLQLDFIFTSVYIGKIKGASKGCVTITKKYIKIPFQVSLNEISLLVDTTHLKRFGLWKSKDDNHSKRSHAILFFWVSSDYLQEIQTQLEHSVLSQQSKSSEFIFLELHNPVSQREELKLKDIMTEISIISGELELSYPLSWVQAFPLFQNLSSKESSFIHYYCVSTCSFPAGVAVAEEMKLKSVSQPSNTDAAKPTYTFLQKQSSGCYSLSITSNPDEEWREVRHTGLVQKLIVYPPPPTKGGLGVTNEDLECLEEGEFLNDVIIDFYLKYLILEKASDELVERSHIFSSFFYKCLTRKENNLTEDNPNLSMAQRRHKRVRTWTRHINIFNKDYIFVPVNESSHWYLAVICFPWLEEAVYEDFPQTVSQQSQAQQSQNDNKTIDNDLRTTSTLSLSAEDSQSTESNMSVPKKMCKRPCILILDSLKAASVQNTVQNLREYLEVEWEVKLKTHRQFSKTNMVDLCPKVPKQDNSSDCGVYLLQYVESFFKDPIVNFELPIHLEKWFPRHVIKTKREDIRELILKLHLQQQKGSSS

[6] = target: T4, Sentrin-specific protease 6 (Homo sapiens, UniProt Q9GZR1); assay: SAR Analysis of small molecule inhibitors of Sentrin-specific protease 6 (SENP6) using a Luminescent assay. [Related pubchem assays (depositor defined):AID2582, AID2599]; format: functional
T4 sequence (Q9GZR1 whole entry): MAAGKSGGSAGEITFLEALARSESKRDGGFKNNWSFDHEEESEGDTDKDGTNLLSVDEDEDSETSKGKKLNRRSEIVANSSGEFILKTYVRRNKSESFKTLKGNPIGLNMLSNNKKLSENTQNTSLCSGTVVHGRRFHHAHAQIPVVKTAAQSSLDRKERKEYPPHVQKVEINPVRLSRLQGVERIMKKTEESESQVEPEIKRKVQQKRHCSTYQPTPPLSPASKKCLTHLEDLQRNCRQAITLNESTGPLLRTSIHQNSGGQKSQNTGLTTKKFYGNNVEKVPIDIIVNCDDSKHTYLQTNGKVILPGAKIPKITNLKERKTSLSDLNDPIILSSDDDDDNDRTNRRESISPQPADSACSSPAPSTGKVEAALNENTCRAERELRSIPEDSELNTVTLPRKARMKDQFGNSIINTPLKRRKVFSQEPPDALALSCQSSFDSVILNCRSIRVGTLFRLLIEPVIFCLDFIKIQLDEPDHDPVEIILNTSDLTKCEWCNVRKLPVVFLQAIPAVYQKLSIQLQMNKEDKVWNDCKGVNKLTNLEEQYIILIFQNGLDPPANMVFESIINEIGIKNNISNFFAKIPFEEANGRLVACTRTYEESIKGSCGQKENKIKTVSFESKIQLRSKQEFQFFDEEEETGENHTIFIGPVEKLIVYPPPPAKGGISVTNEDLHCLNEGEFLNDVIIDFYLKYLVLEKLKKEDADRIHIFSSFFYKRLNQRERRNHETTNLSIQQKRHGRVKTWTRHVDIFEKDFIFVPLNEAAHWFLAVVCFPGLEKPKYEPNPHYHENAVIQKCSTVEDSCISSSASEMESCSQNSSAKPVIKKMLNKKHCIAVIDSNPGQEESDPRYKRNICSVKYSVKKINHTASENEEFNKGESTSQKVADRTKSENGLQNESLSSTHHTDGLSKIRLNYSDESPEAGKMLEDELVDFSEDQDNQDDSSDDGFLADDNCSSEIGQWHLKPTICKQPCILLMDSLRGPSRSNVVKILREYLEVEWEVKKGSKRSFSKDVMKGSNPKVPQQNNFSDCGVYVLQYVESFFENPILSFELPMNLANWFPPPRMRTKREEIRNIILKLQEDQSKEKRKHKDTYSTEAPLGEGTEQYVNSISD

[7] = target: T4, Sentrin-specific protease 6; assay: inhibition of human SENP6 catalytic domain – biochemical, luminescence, set 2, SAR follow-up (AID 588598); format: functional
[8] = target: T3, Sentrin-specific protease 7; assay: inhibition of human SENP7 cleavage activity – biochemical, luminescence, SAR follow-up (AID 504497); format: functional
[9] = target: T5, Endoribonuclease toxin MazF (Escherichia coli K-12, UniProt P0AE70); assay: MazEF toxin-antitoxin RNase activation – biochemical, fluorescence, single-stranded RNA substrate, SAR follow-up (AID 588603); format: functional
T5 sequence (P0AE70 whole entry): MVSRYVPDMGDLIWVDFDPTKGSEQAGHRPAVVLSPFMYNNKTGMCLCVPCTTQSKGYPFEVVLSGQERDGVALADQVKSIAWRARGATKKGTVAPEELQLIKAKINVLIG

[10] = target: T5, Endoribonuclease toxin MazF; assay: activation of MazEF endoribonuclease cleavage – biochemical, fluorescence, single-stranded RNA substrate, uHTS hits, dose response (AID 588481); format: functional
MEF = assay: SAR analysis of small molecule cytotoxicity of MazEF TA System activators in embryonic fibroblast (MEF) cells. [Related pubchem assays (depositor defined):AID504720, AID504743]; format: functional; settings: Mus musculus
[11] = target: T5, Endoribonuclease toxin MazF; assay: SAR analysis of small molecule activators of the MazEF TA System via a fluorescence-based single-stranded RNase assay counterscreen. [Related pubchem assays (depositor defined):AID504720, AID504743]; format: functional
[12] = target: T5, Endoribonuclease toxin MazF; assay: substrate-only fluorescence increase artefacts – biochemical, single-stranded RNase substrate, counter-screen for MazEF activator project, dose response (AID 588502); format: functional
Phospholipase D1 = Phospholipase D1 (Homo sapiens, UniProt Q13393); assay: cellular phospholipase D1 inhibition IC50 – cell-based, dose response (AID 602151); format: functional;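 note: cellular PLD1 assay in Calu-1 cells stimulated with PMA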
Phospholipase D2 = Phospholipase D2 (Homo sapiens, UniProt O14939); assay: cellular phospholipase D2 inhibition IC50 – cell-based, dose response (AID 602147); format: functional;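 note: cellular assay in HEK293 cells overexpressing GFP-tagged PLD2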
Large T antigen = Large T antigen (Simian virus 40, UniProt P03070); format: functional, Betapolyomavirus macacae;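 note: Confirmatory-stage PubChem screen for compounds that inhibit SV40 T antigen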
[13] = target: FAD-linked sulfhydryl oxidase ALR (Homo sapiens, UniProt P55789); assay: ALR-catalysed DTT oxidation blockers – biochemical, H2O2 detection, luminescence, cherry-pick, dose response (AID 493248)
[14] = luciferase inhibitors in kinase-free ADP detection – biochemical, luminescence, cherry-pick, set 02, artefact control for Dyrk1A inhibitor project, dose response (AID 588348)
[15] = target: Dual specificity tyrosine-phosphorylation-regulated kinase 1A (Rattus norvegicus, UniProt Q63470); format: biochemical, Homo sapiens
P388/ADR = assay: cells; format: functional; settings: Mus musculus, P388/ADR
SN12K1 = assay: cells; format: functional; settings: Homo sapiens, SN12K1
P388 = assay: cells; format: functional; settings: Mus musculus, P388

Phospholipase D2, sequence (O14939 whole entry): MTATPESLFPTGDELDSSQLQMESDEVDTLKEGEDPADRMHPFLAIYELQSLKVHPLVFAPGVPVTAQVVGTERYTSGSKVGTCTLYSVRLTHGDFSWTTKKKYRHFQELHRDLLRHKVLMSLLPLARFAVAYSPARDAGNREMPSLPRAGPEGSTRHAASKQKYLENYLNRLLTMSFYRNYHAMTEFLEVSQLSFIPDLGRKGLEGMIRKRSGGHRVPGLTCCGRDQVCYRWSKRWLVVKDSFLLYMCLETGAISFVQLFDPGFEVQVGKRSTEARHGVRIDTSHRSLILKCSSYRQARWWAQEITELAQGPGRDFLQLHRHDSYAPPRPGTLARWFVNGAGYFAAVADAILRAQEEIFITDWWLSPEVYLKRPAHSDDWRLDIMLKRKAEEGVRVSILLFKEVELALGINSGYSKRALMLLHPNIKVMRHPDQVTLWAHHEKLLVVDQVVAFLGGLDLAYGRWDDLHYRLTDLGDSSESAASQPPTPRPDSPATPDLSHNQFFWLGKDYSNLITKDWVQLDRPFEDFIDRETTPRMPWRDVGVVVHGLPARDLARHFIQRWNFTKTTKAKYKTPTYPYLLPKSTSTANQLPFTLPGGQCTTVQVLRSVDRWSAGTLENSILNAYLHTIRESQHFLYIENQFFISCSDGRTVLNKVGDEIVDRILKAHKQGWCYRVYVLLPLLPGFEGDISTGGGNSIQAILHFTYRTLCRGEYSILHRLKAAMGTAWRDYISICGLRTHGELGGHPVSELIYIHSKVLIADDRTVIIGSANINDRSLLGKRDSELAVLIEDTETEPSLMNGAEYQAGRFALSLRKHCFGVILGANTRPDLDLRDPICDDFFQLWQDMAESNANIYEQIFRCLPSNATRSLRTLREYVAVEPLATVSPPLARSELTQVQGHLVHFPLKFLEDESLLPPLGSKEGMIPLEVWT
Phospholipase D1, sequence (Q13393 whole entry): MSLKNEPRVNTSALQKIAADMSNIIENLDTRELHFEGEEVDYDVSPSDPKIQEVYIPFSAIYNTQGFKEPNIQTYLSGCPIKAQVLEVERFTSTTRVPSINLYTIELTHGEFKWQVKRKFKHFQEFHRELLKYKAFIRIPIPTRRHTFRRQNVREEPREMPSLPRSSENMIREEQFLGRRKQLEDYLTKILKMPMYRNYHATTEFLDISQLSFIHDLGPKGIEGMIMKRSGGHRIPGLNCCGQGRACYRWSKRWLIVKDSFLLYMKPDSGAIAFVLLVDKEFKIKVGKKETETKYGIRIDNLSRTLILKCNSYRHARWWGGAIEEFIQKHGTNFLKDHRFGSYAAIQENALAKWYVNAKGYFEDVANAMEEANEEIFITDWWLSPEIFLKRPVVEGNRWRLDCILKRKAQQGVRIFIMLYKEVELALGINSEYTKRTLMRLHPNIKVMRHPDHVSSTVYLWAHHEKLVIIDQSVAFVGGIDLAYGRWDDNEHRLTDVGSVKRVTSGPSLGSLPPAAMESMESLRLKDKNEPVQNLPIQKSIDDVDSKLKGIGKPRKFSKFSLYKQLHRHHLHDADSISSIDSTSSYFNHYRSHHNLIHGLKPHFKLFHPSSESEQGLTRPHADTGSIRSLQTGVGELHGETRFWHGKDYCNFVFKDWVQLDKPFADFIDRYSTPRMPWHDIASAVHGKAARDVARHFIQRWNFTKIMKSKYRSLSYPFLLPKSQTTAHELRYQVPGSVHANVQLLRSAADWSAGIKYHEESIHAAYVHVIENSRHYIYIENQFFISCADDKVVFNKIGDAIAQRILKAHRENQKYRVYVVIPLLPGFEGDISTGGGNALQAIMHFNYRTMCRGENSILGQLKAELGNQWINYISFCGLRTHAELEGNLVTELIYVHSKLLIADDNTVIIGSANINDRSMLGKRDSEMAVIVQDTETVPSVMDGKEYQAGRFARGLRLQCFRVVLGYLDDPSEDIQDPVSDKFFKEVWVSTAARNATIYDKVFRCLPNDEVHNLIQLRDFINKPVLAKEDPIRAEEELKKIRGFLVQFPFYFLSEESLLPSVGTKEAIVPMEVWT
FAD-linked sulfhydryl oxidase ALR, sequence (P55789 whole entry): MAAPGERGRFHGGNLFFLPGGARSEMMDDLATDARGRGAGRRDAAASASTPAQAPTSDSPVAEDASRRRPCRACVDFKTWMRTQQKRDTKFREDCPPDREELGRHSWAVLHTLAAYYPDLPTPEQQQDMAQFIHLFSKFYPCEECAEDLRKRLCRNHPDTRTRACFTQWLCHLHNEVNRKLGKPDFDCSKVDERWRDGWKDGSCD
Large T antigen, sequence (P03070 whole entry): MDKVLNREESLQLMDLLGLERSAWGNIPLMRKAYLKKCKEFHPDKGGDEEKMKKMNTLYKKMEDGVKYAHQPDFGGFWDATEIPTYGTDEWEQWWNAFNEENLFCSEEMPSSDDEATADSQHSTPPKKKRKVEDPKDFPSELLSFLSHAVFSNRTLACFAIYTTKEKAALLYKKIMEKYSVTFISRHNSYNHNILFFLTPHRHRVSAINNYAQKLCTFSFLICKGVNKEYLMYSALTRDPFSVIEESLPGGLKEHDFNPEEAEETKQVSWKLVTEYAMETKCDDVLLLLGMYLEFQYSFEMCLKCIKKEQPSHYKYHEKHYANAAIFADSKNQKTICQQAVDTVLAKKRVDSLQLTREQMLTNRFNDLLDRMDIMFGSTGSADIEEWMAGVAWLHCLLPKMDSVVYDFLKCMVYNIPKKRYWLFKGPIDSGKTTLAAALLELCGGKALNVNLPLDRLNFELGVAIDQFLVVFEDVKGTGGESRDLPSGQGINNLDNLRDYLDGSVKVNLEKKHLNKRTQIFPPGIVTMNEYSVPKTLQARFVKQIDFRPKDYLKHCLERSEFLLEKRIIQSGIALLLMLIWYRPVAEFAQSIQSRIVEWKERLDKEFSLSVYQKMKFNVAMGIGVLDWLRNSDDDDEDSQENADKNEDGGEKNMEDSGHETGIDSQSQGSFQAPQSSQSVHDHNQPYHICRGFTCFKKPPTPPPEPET

O=C(Nc1nc2ccc(Cl)cc2s1)c1ccco1
IC50 [1]: 1.7 µM (active) | IC50 (Caspase-3 [2]): 1.42 µM (active) | IC50 [3]: 1.08 µM (active) | IC50 (Caspase-3 [4]): 1.5 µM (active) | IC50 [5]: 1.23 µM (active) | IC50 [6]: 1.4 µM (active) | IC50 [7]: 1.16 µM (active) | IC50 [8]: 1 µM (active)

Cc1ccc(CNC(=O)c2ccc(CNS(=O)(=O)c3ccc4c(c3)C(C)(C)C(=O)N4C)cc2)o1
EC50 [9]: 9.72 µM (active) | EC50 [10]: 9.43 µM (active) | CC50 (MEF): > 99 µM (inactive) | EC50 [11]: > 99 µM (inactive) | EC50 [12]: > 99 µM (inactive)

C[C@@H](CN1CCC(n2c(=O)[nH]c3ccccc32)CC1)NC(=O)c1ccc(C(F)(F)F)cc1
IC50 (Phospholipase D1): 0.121 µM (active) | IC50 (Phospholipase D2): 20 µM (active)

Oc1cc(O)cc(/C=C/c2ccc(O)c(O)c2)c1 [PICEATANNOL]
IC50 (Large T antigen): 16.4 µM (active) | AC50 [13]: 0.689 µM (active) | EC50 [10]: > 99 µM (inactive) | AC50 [14]: 27.7 µM (active) | EC50 [12]: > 99 µM (inactive) | AC50 [15]: 7.53 µM (active) | GI50 (P388/ADR): 7.76 µM (inactive) | GI50 (SN12K1): 3.94 µM (inactive) | GI50 (P388): 5.48 µM (inactive)
